{"source": "paper PMC13266999", "about": "“Designing Antibiotics with Inherent Resistance to Efflux as a Strategy to Revive Discovery against Multidrug-Resistant Pathogens” (Journal of Medicinal Chemistry, 2026)", "key": {"K. pneumoniae": {"system": "K. pneumoniae", "assay": "MIC (microbroth dilution)", "assay_type": "cell-based, Klebsiella pneumoniae", "details": "Klebsiella pneumoniae, read-out: MIC", "protocol": "(§1) All bacteria were maintained on tryptic soy agar (TSA), except Streptococcus spp., which were maintained on Columbia agar plates containing 5% horse blood. […] Bacteria were grown to stationary phase in liquid culture overnight, with shaking at 200 rpm, before being back diluted to the relevant starting concentration for each assay below. MICs were measured by the microbroth dilution method. […] Absorbance at OD600 was read on a CLARIOstar spectrophotometer (BMG Labtech) and the MIC was defined as the minimum concentration of compound where no visible growth was detected. […] MICs were also performed in the presence of the outer membrane permeator, polymyxin b nonapeptide (PMBN) following the same MIC method but with the following variation. The 2-fold dilution series of compound was prepared as above, then 50 μL of PMBN at a final concentration of 30 μg/mL was added to relevant wells, while 50 μL/well of blank media was added to the remaining wells. Bacteria were then added at 50 μL/well for a starting concentration as above. […] The MICs were read and defined as above. All animal procedures were performed by the contract research organization Pharmacology Discovery Services Taiwan in accordance with the Guide for the Care and Use of Laboratory Animals. The procedures were approved by the Institutional Ethics Committee of Pharmacology Discovery Services Taiwan, Ltd. (approval no. AB127662), in compliance with animal welfare legislation in Taiwan."}, "S. aureus [1]": {"system": "S. aureus", "assay": "MIC (microbroth dilution)", "assay_type": "cell-based, Staphylococcus aureus", "details": "for MIC: Staphylococcus aureus", "protocol": "as §1"}, "A. baumannii strain AYE": {"system": "A. baumannii strain AYE", "assay": "Time-kill assay", "assay_type": "cell-based", "details": "4 × MIC", "protocol": "Time-kill assays were performed as defined previously."}, "S. aureus [2]": {"system": "S. aureus", "assay": "Serial passaging, MIC of adapted strains", "assay_type": "cell-based", "details": "Staphylococcus aureus", "protocol": "MICs were performed on the first and 10th passage."}, "Acinetobacter baumannii": {"system": "Acinetobacter baumannii", "assay": "MIC (microbroth dilution)", "assay_type": "cell-based", "protocol": "All bacteria were maintained on tryptic soy agar (TSA), except Streptococcus spp., which were maintained on Columbia agar plates containing 5% horse blood. All bacterial assays were carried out in tryptic soy broth (TSB), except for Streptococcus spp. which were grown in cation-adjusted Mueller Hinton broth containing 2.5% lysed horse blood. Bacteria were grown to stationary phase in liquid culture overnight, with shaking at 200 rpm, before being back diluted to the relevant starting concentration for each assay below. MICs were measured by the microbroth dilution method. […] Absorbance at OD600 was read on a CLARIOstar spectrophotometer (BMG Labtech) and the MIC was defined as the minimum concentration of compound where no visible growth was detected. The compounds were prepared as a DMSO stock and equivalent concentrations of DMSO had no effect on bacterial growth. MICs were also performed in the presence of the outer membrane permeator, polymyxin b nonapeptide (PMBN) following the same MIC method but with the following variation. The 2-fold dilution series of compound was prepared as above, then 50 μL of PMBN at a final concentration of 30 μg/mL was added to relevant wells, while 50 μL/well of blank media was added to the remaining wells. Bacteria were then added at 50 μL/well for a starting concentration as above. Thirty μg/mL of PMBN had no effect on bacterial growth. The MICs were read and defined as above. All animal procedures were performed by the contract research organization Pharmacology Discovery Services Taiwan in accordance with the Guide for the Care and Use of Laboratory Animals. The procedures were approved by the Institutional Ethics Committee of Pharmacology Discovery Services Taiwan, Ltd. (approval no. AB127662), in compliance with animal welfare legislation in Taiwan."}, "E. coli": {"system": "E. coli", "assay": "MIC (microbroth dilution)", "assay_type": "cell-based", "details": "Escherichia coli", "protocol": "as §1"}, "[3]": {"system": "NorA overexpressing strain NCTC 13616", "assay": "Reserpine growth (efflux inhibition) assay", "details": "0.5x MIC with vs without reserpine", "method": "Statistical analyses were performed with GraphPad Prism V9.5.0. […] Unpaired t tests were used when comparing two samples in the gyrase assays."}, "[4]": {"details": "reported values; cited from earlier work"}}, "note": "Where two headings read alike, the source gives them in different places."}
{"smiles": "COc1c(N2CC[C@@H](Nc3ncccn3)C2)c(F)cc2c(=O)c(C(=O)O)cn(C3CC3)c12", "note": "[Compound 51, (R)-1-Cyclopropyl-6-fluoro-8-methoxy-4-oxo-7-(3-(pyrimidin-2-ylamino)pyrrolidin-1-yl)-1,4-dihydroquinoline-3-carboxylic acid]", "values": [{"measurement": "MIC", "setting": "K. pneumoniae; M6", "value": "1 to 2", "unit": "µg/mL"}, {"measurement": "MIC", "setting": "K. pneumoniae; NCTC13368, NCTC 13368", "value": 4, "unit": "µg/mL"}, {"measurement": "MIC", "setting": "K. pneumoniae; TW3", "value": 0.5, "unit": "µg/mL"}, {"measurement": "fold more active than moxifloxacin", "setting": "S. aureus [1]", "value": "4–8 fold"}, {"measurement": "MIC", "setting": "S. aureus [1]; ATCC9144, ATCC 9144, read-out: MIC", "value": "≤ 0.03", "unit": "µg/mL"}, {"measurement": "MIC", "setting": "S. aureus [1]; NCTC13277, NCTC 13277, read-out: MIC", "value": "0.125 to 0.25", "unit": "µg/mL"}, {"measurement": "MIC", "setting": "S. aureus [1]; NCTC13616, NCTC 13616, read-out: MIC", "value": 0.125, "unit": "µg/mL"}, {"measurement": "MIC", "setting": "S. aureus [1]; SA-1199, read-out: MIC", "value": 0.004, "unit": "µg/mL"}, {"measurement": "MIC", "setting": "S. aureus [1]; SA-1199B (NorA-overexpressing)", "value": 0.004, "unit": "µg/mL"}, {"measurement": "time-kill profile", "setting": "A. baumannii strain AYE", "value": "rapid bactericidal activity"}, {"measurement": "MIC", "setting": "S. aureus [2]; 1199B WT", "value": 0.008, "unit": "µg/mL"}, {"measurement": "MIC", "setting": "S. aureus [2]; 1199B adapted to 4 x MIC of Compound 7", "value": 0.008, "unit": "µg/mL"}, {"measurement": "MIC", "setting": "S. aureus [2]; 1199B adapted to 4 x MIC of Compound 46", "value": 0.03, "unit": "µg/mL"}, {"measurement": "MIC", "setting": "S. aureus [2]; 1199B adapted to 4 x MIC of Compound 50", "value": 0.125, "unit": "µg/mL"}, {"measurement": "MIC", "setting": "S. aureus [2]; 1199B adapted to 4 x MIC of Compound 51", "value": 0.015, "unit": "µg/mL"}, {"measurement": "MIC", "setting": "S. aureus [2]; 1199 WT", "value": 0.004, "unit": "µg/mL"}, {"measurement": "MIC", "setting": "S. aureus [2]; 1199 adapted to 4 x MIC of Compound 7", "value": "≤ 0.008", "unit": "µg/mL"}, {"measurement": "MIC", "setting": "S. aureus [2]; 1199 adapted to 4 x MIC of Compound 46", "value": "≤ 0.008", "unit": "µg/mL"}, {"measurement": "MIC", "setting": "S. aureus [2]; 1199 adapted to 4 x MIC of Compound 50", "value": 0.06, "unit": "µg/mL"}, {"measurement": "MIC", "setting": "S. aureus [2]; 1199 adapted to 4 x MIC of Compound 51", "value": 0.015, "unit": "µg/mL"}, {"measurement": "MIC", "setting": "S. aureus [2]; NCTC13616, NCTC 13616 WT", "value": 0.125, "unit": "µg/mL"}, {"measurement": "MIC", "setting": "S. aureus [2]; NCTC13616, NCTC 13616 adapted to 4 x MIC of Compound 7", "value": 0.25, "unit": "µg/mL"}, {"measurement": "MIC", "setting": "S. aureus [2]; NCTC13616, NCTC 13616 adapted to 4 x MIC of Compound 46", "value": 0.125, "unit": "µg/mL"}, {"measurement": "MIC", "setting": "S. aureus [2]; NCTC13616, NCTC 13616 adapted to 4 x MIC of Compound 50", "value": 0.25, "unit": "µg/mL"}, {"measurement": "MIC", "setting": "S. aureus [2]; NCTC13616, NCTC 13616 adapted to 4 x MIC of Compound 51", "value": 0.5, "unit": "µg/mL"}, {"measurement": "MIC", "setting": "Acinetobacter baumannii; Acinetobacter baumannii, 86, oxa23", "value": 16, "unit": "µg/mL"}, {"measurement": "MIC", "setting": "Acinetobacter baumannii; Acinetobacter baumannii, A601 colS", "value": "≤ 0.03", "unit": "µg/mL"}, {"measurement": "MIC", "setting": "Acinetobacter baumannii; Acinetobacter baumannii, ATCC17978, ATCC 17978, read-out: MIC", "value": "≤ 0.125", "unit": "µg/mL"}, {"measurement": "MIC", "setting": "Acinetobacter baumannii; Acinetobacter baumannii, BAA1709, BAA-1709, read-out: MIC", "value": 0.06, "unit": "µg/mL"}, {"measurement": "MIC", "setting": "Acinetobacter baumannii; Acinetobacter baumannii, BAA1710, BAA-1710 (AYE), read-out: MIC", "value": 4, "unit": "µg/mL"}, {"measurement": "MIC", "setting": "Acinetobacter baumannii; Acinetobacter baumannii, BAA2093, BAA-2093, read-out: MIC", "value": "0.03 to 0.06", "unit": "µg/mL"}, {"measurement": "MIC", "setting": "Acinetobacter baumannii; Acinetobacter baumannii, NCTC10303, NCTC 10303, read-out: MIC", "value": 0.06, "unit": "µg/mL"}, {"measurement": "MIC", "setting": "Acinetobacter baumannii; Acinetobacter baumannii, NCTC12156, NCTC 12156, read-out: MIC", "value": 0.125, "unit": "µg/mL"}, {"measurement": "MIC", "setting": "Acinetobacter baumannii; Acinetobacter baumannii, NCTC13302, NCTC 13302, oxa24, read-out: MIC", "value": 4, "unit": "µg/mL"}, {"measurement": "MIC", "setting": "Acinetobacter baumannii; Acinetobacter baumannii, NCTC13424, NCTC 13424, oxa23, read-out: MIC", "value": "> 32", "unit": "µg/mL"}, {"measurement": "MIC", "setting": "Acinetobacter baumannii; Acinetobacter baumannii, T strain", "value": 8, "unit": "µg/mL"}, {"measurement": "MIC", "setting": "Acinetobacter baumannii; Acinetobacter baumannii, UKA1, oxa23, read-out: MIC", "value": 2, "unit": "µg/mL"}, {"measurement": "MIC", "setting": "Acinetobacter baumannii; Acinetobacter baumannii, UKA2, Low resistance, read-out: MIC", "value": 4, "unit": "µg/mL"}, {"measurement": "MIC", "setting": "Acinetobacter baumannii; Acinetobacter baumannii, UKA9, read-out: MIC", "value": 0.06, "unit": "µg/mL"}, {"measurement": "MIC", "setting": "Acinetobacter baumannii; Acinetobacter baumannii, UKA12, oxa23, read-out: MIC", "value": 2, "unit": "µg/mL"}, {"measurement": "MIC", "setting": "Acinetobacter baumannii; Acinetobacter baumannii, UKA13, oxa23, read-out: MIC", "value": 2, "unit": "µg/mL"}, {"measurement": "MIC", "setting": "Acinetobacter baumannii; Acinetobacter baumannii, UKA15, oxa23, read-out: MIC", "value": 2, "unit": "µg/mL"}, {"measurement": "MIC", "setting": "Acinetobacter baumannii; Acinetobacter baumannii, UKA19, read-out: MIC", "value": 0.25, "unit": "µg/mL"}, {"measurement": "MIC", "setting": "Acinetobacter baumannii; Acinetobacter baumannii, W1, read-out: MIC", "value": 4, "unit": "µg/mL"}, {"measurement": "MIC", "setting": "E. coli; 319238/UR", "value": 16, "unit": "µg/mL"}, {"measurement": "MIC", "setting": "E. coli; LEC006", "value": 0.25, "unit": "µg/mL"}, {"measurement": "MIC", "setting": "E. coli; LEC007", "value": 0.125, "unit": "µg/mL"}, {"measurement": "MIC", "setting": "E. coli; LEC077", "value": 4, "unit": "µg/mL"}, {"measurement": "MIC", "setting": "E. coli; LEC081", "value": 2, "unit": "µg/mL"}, {"measurement": "MIC", "setting": "E. coli; NCTC10418, NCTC 10418", "value": 0.125, "unit": "µg/mL"}, {"measurement": "MIC", "setting": "E. coli; NCTC11954, NCTC 11954", "value": 0.125, "unit": "µg/mL"}, {"measurement": "MIC", "setting": "E. coli; NCTC12241, NCTC 12241", "value": 0.06, "unit": "µg/mL"}, {"measurement": "MIC", "setting": "E. coli; NCTC12923, NCTC 12923", "value": "≤ 0.125", "unit": "µg/mL"}, {"measurement": "efflux liability in reserpine assay", "setting": "[3]", "value": "minimal shift"}]}
{"smiles": "Nc1nc(-n2cc(C(=O)O)c(=O)c3cc(F)c(N4CC(O)C4)c(Cl)c32)c(F)cc1F", "note": "[delafloxacin]", "values": [{"measurement": "plasma protein binding", "setting": "[4]", "value": 84, "unit": "%"}]}
